Data published in PMC5218480 (PLoS ONE, 2017).

Tested on: MV-4-11 cells
Experiment: Gene expression microarray analysis (Affymetrix PrimeView) and GSEA
Type: cell-based, human
Design: RFU PODN (11730768_x_at) / Fold change /veh PODN (11730768_x_at) / RFU LINC00158 (11744669_a_at) / Fold change /veh LINC00158 (11744669_a_at) / RFU DUSP10 (11751237_a_at) / Fold change /veh DUSP10 (11751237_a_at) / RFU ID3 (11757404_x_at) / Fold change /veh ID3 (11757404_x_at) / RFU PLEKHG5 (11737974_s_at) / Fold change /veh PLEKHG5 (11737974_s_at) / RFU LRRC4B (11730491_at) / Fold change /veh LRRC4B (11730491_at) / RFU GIMAP4 (11747438_a_at) / Fold change /veh GIMAP4 (11747438_a_at) / RFU KRT8 (11758183_x_at) / Fold change /veh KRT8 (11758183_x_at) / RFU CNN1 (11734310_a_at) / Fold change /veh CNN1 (11734310_a_at) / RFU VPS37D (11726825_at) / Fold change /veh VPS37D (11726825_at) / RFU C10orf10 (11716522_x_at) / Fold change /veh C10orf10 (11716522_x_at) / RFU KIR2DL2 /// KIR2DL4 /// KIR2DL5A /// KIR2DL5B /// KIR2DS1 /// KIR2DS2 /// KIR2DS3 /// KIR2DS4 /// KIR3DL3 /// KIR3DL3 /// KIR3DS1 (11738374_at) / Fold change /veh KIR2DL2 /// KIR2DL4 /// KIR2DL5A /// KIR2DL5B /// KIR2DS1 /// KIR2DS2 /// KIR2DS3 /// KIR2DS4 /// KIR3DL3 /// KIR3DL3 /// KIR3DS1 (11738374_at) / RFU C1QL1 (11718748_at) / Fold change /veh C1QL1 (11718748_at) / RFU TMPRSS4 (11747572_a_at) / Fold change /veh TMPRSS4 (11747572_a_at) / RFU HAMP (11756126_x_at) / Fold change /veh HAMP (11756126_x_at) / RFU RNFT2 (11725882_a_at) / Fold change /veh RNFT2 (11725882_a_at) / RFU NR4A2 (11747474_a_at) / Fold change /veh NR4A2 (11747474_a_at) / RFU ABCC12 (11746883_a_at) / Fold change /veh ABCC12 (11746883_a_at) / RFU TMEM136 (11760407_x_at) / Fold change /veh TMEM136 (11760407_x_at) / RFU CLDN22 /// WWC2 (11732394_at) / Fold change /veh CLDN22 /// WWC2 (11732394_at) / RFU HLA-DPB1 (11760878_x_at) / Fold change /veh HLA-DPB1 (11760878_x_at) / RFU SPINT1 (11716480_a_at) / Fold change /veh SPINT1 (11716480_a_at) / RFU GAP43 (11754022_s_at) / Fold change /veh GAP43 (11754022_s_at) / RFU A4GNT (11735810_at) / Fold change /veh A4GNT (11735810_at) / RFU PRB3 (11715151_x_at) / Fold change /veh PRB3 (11715151_x_at) / RFU TUBB4B (11761932_at) / Fold change /veh TUBB4B (11761932_at) / RFU CAPN14 (11732068_a_at) / Fold change /veh CAPN14 (11732068_a_at) / RFU TMCC2 (11721928_a_at) / Fold change /veh TMCC2 (11721928_a_at) / RFU IRGQ (11745062_a_at) / Fold change /veh IRGQ (11745062_a_at) / RFU FAM174B (11720279_a_at) / Fold change /veh FAM174B (11720279_a_at) / RFU TMPRSS4 (11748680_a_at) / Fold change /veh TMPRSS4 (11748680_a_at) / RFU FAM212B (11763350_a_at) / Fold change /veh FAM212B (11763350_a_at) / RFU PLEKHG5 (11743358_a_at) / Fold change /veh PLEKHG5 (11743358_a_at) / RFU ZSCAN30 (11745921_a_at) / Fold change /veh ZSCAN30 (11745921_a_at) / RFU CMKLR1 (11741424_a_at) / Fold change /veh CMKLR1 (11741424_a_at) / RFU LOC101060620 /// MAPK8IP1 (11723275_at) / Fold change /veh LOC101060620 /// MAPK8IP1 (11723275_at) / RFU SPTSSB (11747773_x_at) / Fold change /veh SPTSSB (11747773_x_at) / RFU PRSS12 (11739890_at) / Fold change /veh PRSS12 (11739890_at) / RFU BIN1 (11741810_x_at) / Fold change /veh BIN1 (11741810_x_at) / RFU WNT11 (11732464_a_at) / Fold change /veh WNT11 (11732464_a_at) / RFU C10orf10 (11716521_a_at) / Fold change /veh C10orf10 (11716521_a_at) / RFU C5orf56 (11738089_at) / Fold change /veh C5orf56 (11738089_at) / RFU CYB561 (11721691_x_at) / Fold change /veh CYB561 (11721691_x_at) / RFU ANKRD19P (11752326_a_at) / Fold change /veh ANKRD19P (11752326_a_at) / RFU OR2T12 /// OR2T33 /// OR2T8 (11738714_s_at) / Fold change /veh OR2T12 /// OR2T33 /// OR2T8 (11738714_s_at) / RFU VCAN (11748164_a_at) / Fold change /veh VCAN (11748164_a_at) / RFU JSRP1 (11732532_at) / Fold change /veh JSRP1 (11732532_at) / RFU KRTAP10-11 (11738290_x_at) / Fold change /veh KRTAP10-11 (11738290_x_at) / RFU MYO3A (11730013_a_at) / Fold change /veh MYO3A (11730013_a_at) / RFU EBF3 (11725865_a_at) / Fold change /veh EBF3 (11725865_a_at) / RFU CAMK2N1 (11719241_x_at) / Fold change /veh CAMK2N1 (11719241_x_at) / RFU C5orf56 (11738088_a_at) / Fold change /veh C5orf56 (11738088_a_at) / RFU OLFML3 (11715873_a_at) / Fold change /veh OLFML3 (11715873_a_at) / RFU LOC100653217 /// NTM (11731650_a_at) / Fold change /veh LOC100653217 /// NTM (11731650_a_at) / RFU MAPK11 (11762145_a_at) / Fold change /veh MAPK11 (11762145_a_at) / RFU FIZ1 (11724087_x_at) / Fold change /veh FIZ1 (11724087_x_at) / RFU OASL (11726364_x_at) / Fold change /veh OASL (11726364_x_at) / RFU SOX15 (11748057_x_at) / Fold change /veh SOX15 (11748057_x_at) / RFU CD79A (11719716_a_at) / Fold change /veh CD79A (11719716_a_at) / RFU HIST1H1D (11736915_at) / Fold change /veh HIST1H1D (11736915_at) / RFU CASKIN2 (11723855_a_at) / Fold change /veh CASKIN2 (11723855_a_at) / RFU LOC730098 (11760151_x_at) / Fold change /veh LOC730098 (11760151_x_at) / RFU OR4N2 (11742367_at) / Fold change /veh OR4N2 (11742367_at) / RFU PRRT2 (11749266_a_at) / Fold change /veh PRRT2 (11749266_a_at) / RFU SNX32 (11753110_a_at) / Fold change /veh SNX32 (11753110_a_at) / RFU CDHR5 (11726645_a_at) / Fold change /veh CDHR5 (11726645_a_at) / RFU RCAN1 (11760418_a_at) / Fold change /veh RCAN1 (11760418_a_at) / RFU FAM167A (11723789_a_at) / Fold change /veh FAM167A (11723789_a_at) / RFU FAM26E (11764081_at) / Fold change /veh FAM26E (11764081_at) / RFU ISYNA1 (11749810_s_at) / Fold change /veh ISYNA1 (11749810_s_at) / RFU ACY1 (11761880_at) / Fold change /veh ACY1 (11761880_at) / RFU 11764098_at / Fold change /veh 11764098_at / RFU SAMD14 (11745864_x_at) / Fold change /veh SAMD14 (11745864_x_at) / RFU NPB (11741838_a_at) / Fold change /veh NPB (11741838_a_at) / RFU TMPRSS6 (11731388_a_at) / Fold change /veh TMPRSS6 (11731388_a_at) / RFU KRTAP10-2 (11738614_at) / Fold change /veh KRTAP10-2 (11738614_at) / RFU ARHGAP8 /// PRR5-ARHGAP8 (11727945_x_at) / Fold change /veh ARHGAP8 /// PRR5-ARHGAP8 (11727945_x_at) / RFU KRTAP5-7 /// NADSYN1 (11734609_at) / Fold change /veh KRTAP5-7 /// NADSYN1 (11734609_at) / RFU RASL12 (11751679_a_at) / Fold change /veh RASL12 (11751679_a_at) / RFU CDKN2B (11736163_a_at) / Fold change /veh CDKN2B (11736163_a_at) / RFU PRF1 (11729649_at) / Fold change /veh PRF1 (11729649_at) / RFU, ZNF638 /// ZNF638-IT1 / Fold change vs veh, ZNF638 /// ZNF638-IT1 / RFU, PANK3 / Fold change vs veh, PANK3 / RFU, SH3YL1 / Fold change vs veh, SH3YL1 / RFU, ZEB2 / Fold change vs veh, ZEB2 / RFU, NRIP1 / Fold change vs veh, NRIP1 / RFU, PTTG1IP / Fold change vs veh, PTTG1IP / RFU, CAPN2 / Fold change vs veh, CAPN2 / RFU, MED14 / Fold change vs veh, MED14 / RFU, SNORA58 / Fold change vs veh, SNORA58 / RFU, C1orf63 / Fold change vs veh, C1orf63 / RFU, LRRFIP1 / Fold change vs veh, LRRFIP1 / RFU, NDUFAF7 / Fold change vs veh, NDUFAF7 / RFU, SLC12A2 / Fold change vs veh, SLC12A2 / RFU, IBTK / Fold change vs veh, IBTK / RFU, ESF1 / Fold change vs veh, ESF1 / Fold change vs veh, TMEM50B / RFU, TAOK1 / Fold change vs veh, TAOK1 / RFU, ACBD3 / Fold change vs veh, ACBD3 / RFU, TMA16 / Fold change vs veh, TMA16 / RFU, RWDD3 / Fold change vs veh, RWDD3 / RFU, BCAT1 / Fold change vs veh, BCAT1 / RFU, EDEM3 / Fold change vs veh, EDEM3 / RFU, TMEM33 / Fold change vs veh, TMEM33 / RFU, WDR75 / Fold change vs veh, WDR75 / RFU, AHCTF1 / Fold change vs veh, AHCTF1 / RFU, TFRC / Fold change vs veh, TFRC / RFU, ZDHHC17 / Fold change vs veh, ZDHHC17 / RFU, NOM1 / Fold change vs veh, NOM1 / RFU, ARL8B / Fold change vs veh, ARL8B / RFU, ZBTB11 / Fold change vs veh, ZBTB11 / RFU, TAMM41 / Fold change vs veh, TAMM41 / RFU, KIAA1704 /// LOC100996395 / Fold change vs veh, KIAA1704 /// LOC100996395 / RFU, ING1 / Fold change vs veh, ING1 / RFU, TRMT61B / Fold change vs veh, TRMT61B / RFU, FUBP3 / Fold change vs veh, FUBP3 / RFU, TP53 / Fold change vs veh, TP53 / RFU, TNKS2 / Fold change vs veh, TNKS2 / RFU, ZFP14 / Fold change vs veh, ZFP14 / RFU, ACTR2 / Fold change vs veh, ACTR2 / RFU, PPP3R1 / Fold change vs veh, PPP3R1 / RFU, PIK3R1 / Fold change vs veh, PIK3R1 / RFU, HNRNPA1 / Fold change vs veh, HNRNPA1 / RFU, RNF170 / Fold change vs veh, RNF170 / RFU, ZNF28 / Fold change vs veh, ZNF28 / RFU, RNGTT / Fold change vs veh, RNGTT / RFU, OGT / Fold change vs veh, OGT / RFU, BRD1 / Fold change vs veh, BRD1 / RFU, MARS / Fold change vs veh, MARS / RFU, ZNF655 / Fold change vs veh, ZNF655 / RFU, FAHD1 / Fold change vs veh, FAHD1 / RFU, BDP1 / Fold change vs veh, BDP1 / RFU, LRRCC1 / Fold change vs veh, LRRCC1 / RFU, ARID1A / Fold change vs veh, ARID1A / RFU, ZNF146 / Fold change vs veh, ZNF146 / RFU, ZNF330 / Fold change vs veh, ZNF330 / RFU, GPN3 / Fold change vs veh, GPN3 / RFU, C9orf123 / Fold change vs veh, C9orf123 / RFU, N4BP2L2 / Fold change vs veh, N4BP2L2 / RFU, ARFIP1 / Fold change vs veh, ARFIP1 / RFU, FAM179B / Fold change vs veh, FAM179B / RFU, BCL10 / Fold change vs veh, BCL10 / RFU, UHRF1BP1L / Fold change vs veh, UHRF1BP1L / RFU, BET1 / Fold change vs veh, BET1 / RFU, CNOT2 / Fold change vs veh, CNOT2 / RFU, ZNF268 / Fold change vs veh, ZNF268 / Fold change vs veh, ZNF507 / RFU, DGCR2 / Fold change vs veh, DGCR2 / RFU, WDSUB1 / Fold change vs veh, WDSUB1 / Fold change vs veh, HSP90B1 /// MIR3652 / RFU, ADSS / Fold change vs veh, ADSS / RFU, GK / Fold change vs veh, GK / RFU, ZNF148 / Fold change vs veh, ZNF148 / RFU, TAF9 / Fold change vs veh, TAF9 / RFU, SLC1A5 / Fold change vs veh, SLC1A5 / RFU, SLMO2 / Fold change vs veh, SLMO2 / RFU, ABCC4 / Fold change vs veh, ABCC4 / RFU, LOC101060439 /// RAP1B / Fold change vs veh, LOC101060439 /// RAP1B / RFU, RFX7 / Fold change vs veh, RFX7 / RFU, GTPBP10 / Fold change vs veh, GTPBP10 / RFU, CNEP1R1 / Fold change vs veh, CNEP1R1 / RFU, BIVM-ERCC5 /// ERCC5 / Fold change vs veh, BIVM-ERCC5 /// ERCC5 / RFU, ILF3 / Fold change vs veh, ILF3 / RFU 11762660_at / Fold change /veh 11762660_at / RFU VCAN (11757783_s_at) / Fold change /veh VCAN (11757783_s_at) / RFU DDX43 (11728927_at) / Fold change /veh DDX43 (11728927_at) / RFU KRT8 (11758188_x_at) / Fold change /veh KRT8 (11758188_x_at) / RFU NKD1 (11759106_at) / Fold change /veh NKD1 (11759106_at) / RFU SRD5A1 (11742802_a_at) / Fold change /veh SRD5A1 (11742802_a_at) / RFU TPSAB1 /// TPSB2 (11721975_s_at) / Fold change /veh TPSAB1 /// TPSB2 (11721975_s_at) / RFU GSTM3 (11746129_a_at) / Fold change /veh GSTM3 (11746129_a_at) / RFU IL23R (11737362_x_at) / Fold change /veh IL23R (11737362_x_at) / RFU TMEM51 (11727254_a_at) / Fold change /veh TMEM51 (11727254_a_at) / RFU PIWIL2 (11732686_x_at) / Fold change /veh PIWIL2 (11732686_x_at) / RFU ORM1 (11744905_x_at) / Fold change /veh ORM1 (11744905_x_at) / RFU CCDC152 (11743942_at) / Fold change /veh CCDC152 (11743942_at) / RFU ECM1 (11717891_a_at) / Fold change /veh ECM1 (11717891_a_at) / RFU IL23R (11748794_a_at) / Fold change /veh IL23R (11748794_a_at) / RFU TNFAIP8L3 (11732012_x_at) / Fold change /veh TNFAIP8L3 (11732012_x_at) / RFU MBOAT4 (11741988_at) / Fold change /veh MBOAT4 (11741988_at) / RFU 11764193_at / Fold change /veh 11764193_at / RFU TMEM53 (11763286_at) / Fold change /veh TMEM53 (11763286_at) / RFU MAGEB2 (11727129_at) / Fold change /veh MAGEB2 (11727129_at) / RFU TMEM200A (11744735_a_at) / Fold change /veh TMEM200A (11744735_a_at) / RFU CCDC152 (11751479_a_at) / Fold change /veh CCDC152 (11751479_a_at) / RFU FAM211A (11726209_a_at) / Fold change /veh FAM211A (11726209_a_at) / RFU RGS16 (11746705_a_at) / Fold change /veh RGS16 (11746705_a_at) / RFU VCAN (11755009_s_at) / Fold change /veh VCAN (11755009_s_at) / RFU RHOB (11743442_s_at) / Fold change /veh RHOB (11743442_s_at) / RFU RGS16 (11720943_a_at) / Fold change /veh RGS16 (11720943_a_at) / RFU RGS16 (11720944_at) / Fold change /veh RGS16 (11720944_at) / RFU, VPS4B / Fold change vs veh, VPS4B / RFU, CREB1 / Fold change vs veh, CREB1 / RFU, DNAJC13 / Fold change vs veh, DNAJC13 / RFU, GNAQ / Fold change vs veh, GNAQ / RFU, CDK5R1 / Fold change vs veh, CDK5R1 / RFU, ZRANB3 / Fold change vs veh, ZRANB3 / RFU, CUL4A / Fold change vs veh, CUL4A / RFU, CCNY / Fold change vs veh, CCNY / RFU, UFL1 / Fold change vs veh, UFL1 / RFU, COG3 / Fold change vs veh, COG3 / RFU, DIAPH2 / Fold change vs veh, DIAPH2 / RFU, SKA2 / Fold change vs veh, SKA2 / RFU, AFF3 / Fold change vs veh, AFF3 / RFU, LMF1 / Fold change vs veh, LMF1 / RFU, IPO11 / Fold change vs veh, IPO11 / RFU, DFFB / Fold change vs veh, DFFB / RFU, FOXP1 / Fold change vs veh, FOXP1 / RFU, CARD8 / Fold change vs veh, CARD8 / RFU, STRN3 / Fold change vs veh, STRN3 / RFU, ADK / Fold change vs veh, ADK / RFU, RASSF2 / Fold change vs veh, RASSF2 / RFU, WIPF1 / Fold change vs veh, WIPF1 / RFU, LARP1B / Fold change vs veh, LARP1B / RFU, RASA1 / Fold change vs veh, RASA1 / RFU, RB1 / Fold change vs veh, RB1 / RFU, PPFIA1 / Fold change vs veh, PPFIA1 / RFU, MAT2A / Fold change vs veh, MAT2A / RFU, CCT5 / Fold change vs veh, CCT5 / RFU, WDR92 / Fold change vs veh, WDR92 / RFU, CUX1 / Fold change vs veh, CUX1 / RFU, TTC7A / Fold change vs veh, TTC7A / RFU, TMEM135 / Fold change vs veh, TMEM135 / RFU, DEPTOR / Fold change vs veh, DEPTOR / RFU, CPM / Fold change vs veh, CPM / RFU, DNAJB6 / Fold change vs veh, DNAJB6 / RFU, CACNA2D3 / Fold change vs veh, CACNA2D3 / RFU, DTX4 / Fold change vs veh, DTX4 / RFU, TFCP2 / Fold change vs veh, TFCP2 / RFU, GMCL1 /// GMCL1P1 / Fold change vs veh, GMCL1 /// GMCL1P1 / RFU, AEBP2 / Fold change vs veh, AEBP2 / RFU, SNHG1 /// SNORD22 /// SNORD25 /// SNORD26 /// SNORD27 /// SNORD28 /// SNORD29 /// SNORD31 / Fold change vs veh, SNHG1 /// SNORD22 /// SNORD25 /// SNORD26 /// SNORD27 /// SNORD28 /// SNORD29 /// SNORD31 / Fold change (Aza/veh), C12orf56 (ProbeSet 11735607_a_at) / Fold change (ACY-1035/veh), C12orf56 (ProbeSet 11735607_a_at) / Fold change (Aza/veh), FGFR1OP (ProbeSet 11751329_s_at) / Fold change (ACY-1035/veh), FGFR1OP (ProbeSet 11751329_s_at) / Fold change (Aza/veh), VPS36 (ProbeSet 11739960_a_at) / Fold change (ACY-1035/veh), VPS36 (ProbeSet 11739960_a_at) / RFU SYPL1 (11715823_x_at) / Fold change /veh SYPL1 (11715823_x_at) / RFU IGFBP7 (11715501_s_at) / Fold change /veh IGFBP7 (11715501_s_at) / RFU REEP3 (11722064_at) / Fold change /veh REEP3 (11722064_at) / RFU IGLL1 (11728026_x_at) / Fold change /veh IGLL1 (11728026_x_at): dose or concentration left out as unconfirmed
Details: MV-4-11 cells, 48 hours

Structure (SMILES): Nc1ncn([C@@H]2O[C@H](CO)[C@@H](O)[C@H]2O)c(=O)n1 [azacitidine]
- Fold change /veh ISYNA1 (11749810_s_at): 1.06
